By IC50 is commonly meant the midpoint of a concentration-inhibition curve.

From patent publication US9409917B2, “Heterocyclic amide derivatives as P2X7 receptor antagonists” (ACTELION PHARMACEUTICALS LTD., priority 2012, dated 2016) come the findings set out here.

The target of the first experiment is human recombinant P2X7 receptor (Homo sapiens (Human), UniProt Q99572). The experiment can be described thus: YO-PRO assay: P2X7 receptor antagonistic activity (ATP-induced YO-PRO-1 uptake, FLIPR).
Sequence of human recombinant P2X7 receptor (Q99572 whole entry): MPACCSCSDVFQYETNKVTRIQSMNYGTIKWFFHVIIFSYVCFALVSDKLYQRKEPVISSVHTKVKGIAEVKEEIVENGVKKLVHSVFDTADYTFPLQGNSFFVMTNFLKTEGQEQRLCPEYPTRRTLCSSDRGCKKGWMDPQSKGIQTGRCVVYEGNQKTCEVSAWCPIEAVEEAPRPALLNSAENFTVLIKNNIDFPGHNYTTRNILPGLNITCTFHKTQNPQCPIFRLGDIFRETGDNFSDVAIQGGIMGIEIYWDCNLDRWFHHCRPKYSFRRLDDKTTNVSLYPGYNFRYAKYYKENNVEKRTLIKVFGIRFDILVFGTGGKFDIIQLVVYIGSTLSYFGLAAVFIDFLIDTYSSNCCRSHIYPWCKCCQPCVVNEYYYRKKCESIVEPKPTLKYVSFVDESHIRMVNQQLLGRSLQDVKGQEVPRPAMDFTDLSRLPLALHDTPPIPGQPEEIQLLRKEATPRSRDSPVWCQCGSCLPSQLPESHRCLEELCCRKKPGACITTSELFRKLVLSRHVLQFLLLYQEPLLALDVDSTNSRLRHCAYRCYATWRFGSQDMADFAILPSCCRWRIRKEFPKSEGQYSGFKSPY
Conditions: not given
For `N#Cc1ccc(CNC(=O)C2COc3ncccc32)c(Cl)c1` (racemic) [Example 61, rac-2,3-Dihydro-furo[2,3-b]pyridine-3-carboxylic acid 2-chloro-4-cyano-benzylamide], the IC50 amounted to 389 nM.

As to `O=C(NCc1ccc(F)cc1Cl)C1CCOc2ncccc21` (racemic) [Example 32, rac-3,4-Dihydro-2H-pyrano[2,3-b]pyridine-4-carboxylic acid 2-chloro-4-fluoro-benzylamide], the IC50 came to 25 nM.

As to `CN(Cc1ccc(Cl)cc1)C(=O)C1COc2ncccc21` (racemic) [Example 48, rac-2,3-Dihydro-furo[2,3-b]pyridine-3-carboxylic acid (4-chloro-benzyl)-methyl-amide], the IC50 is 1090 nM.

With `Cc1cc(Cl)cc(Cl)c1CNC(=O)C1(F)CCOc2ncccc21` (racemic) [Example 12, rac-4-Fluoro-3,4-dihydro-2H-pyrano[2,3-b]pyridine-4-carboxylic acid 2,4-dichloro-6-methyl-benzylamide], the IC50 is 3.1 nM.

For the compound `O=C(NCc1cccc(Cl)c1Cl)C1(F)COc2ncccc21` (racemic) [Example 20, rac-3-Fluoro-2,3-dihydro-furo[2,3-b]pyridine-3-carboxylic acid 2,3-dichloro-benzylamide], the IC50 stood at 67.9 nM.

As for `O=C(NCc1cccc(Cl)c1Cl)C1COc2ncccc21` (racemic) [Example 45, rac-2,3-Dihydro-furo[2,3-b]pyridine-3-carboxylic acid 2,3-dichloro-benzylamide], the IC50 came out at 37.2 nM.

On to `O=C(NCc1cccc(C(F)(F)F)c1Cl)C1(F)COc2ncccc21` (racemic) [Example 55, rac-3-Fluoro-2,3-dihydro-furo[2,3-b]pyridine-3-carboxylic acid 2-chloro-3-trifluoromethyl-benzylamide], for which the IC50 turned out to be 41.6 nM.

`O=C(NCc1c(Cl)cc(Cl)cc1COCCO)C1COc2ncccc21` (racemic) [Example 93, rac-2,3-Dihydro-furo[2,3-b]pyridine-3-carboxylic acid 2,4-dichloro-6-(2-hydroxy-ethoxymethyl)-benzylamide]: the IC50 is 11.4 nM.

Take `Cc1c(Cl)cccc1CNC(=O)C1COc2ncccc21` (racemic) [Example 42, rac-2,3-Dihydro-furo[2,3-b]pyridine-3-carboxylic acid 3-chloro-2-methyl-benzylamide]: the IC50 amounted to 46.9 nM.

Consider `O=C(NC1(c2ccc(Cl)cc2Cl)CC1)C1CCOc2ncccc21` (racemic) [Example 58, rac-3,4-Dihydro-2H-pyrano[2,3-b]pyridine-4-carboxylic acid [1-(2,4-dichloro-phenyl)-cyclopropyl]-amide], for which the IC50 was 2700 nM.

For the compound `O=C(NCC1(O)CCCCC1)C1CCOc2ncccc21` (racemic) [Example 10, rac-3,4-Dihydro-2H-pyrano[2,3-b]pyridine-4-carboxylic acid (1-hydroxy-cyclohexylmethyl)-amide], the IC50 is 3170 nM.

As for `O=C(NCc1cccc(Cl)c1Cl)C1CCOc2ncccc21` (racemic) [Example 34, rac-3,4-Dihydro-2H-pyrano[2,3-b]pyridine-4-carboxylic acid 2,3-dichloro-benzylamide], the IC50 amounted to 10.7 nM.

With `O=C(NCc1c(Cl)cc(Cl)cc1Cl)C1COc2ncccc21` (racemic) [Example 114, rac-2,3-Dihydro-furo[2,3-b]pyridine-3-carboxylic acid 2,4,6-trichloro-benzylamide], the IC50 was 12.5 nM.

`O=C(NCc1c(Cl)cc(Cl)cc1C(F)(F)F)C1COc2ncccc21` (racemic) [Example 68, rac-2,3-Dihydro-furo[2,3-b]pyridine-3-carboxylic acid 2,4-dichloro-6-trifluoromethyl-benzylamide]: the IC50 turned out to be 13.8 nM.

Consider `O=C1CC(NC(=O)C2COc3ncccc32)c2ccccc21` (racemic) [Example 89, rac-2,3-Dihydro-furo[2,3-b]pyridine-3-carboxylic acid (3-oxo-indan-1-yl)-amide], for which the IC50 is 2510 nM.

In the case of `O=C(NCc1ccc(Cl)cc1Cl)C1CCOc2ncccc21` (racemic) [Example 39, rac-3,4-Dihydro-2H-pyrano[2,3-b]pyridine-4-carboxylic acid 2,4-dichloro-benzylamide], the IC50 stood at 11.8 nM.

In the case of `O=C(NC(CO)C1CCCCCC1)C1COc2ncccc21` (single isomer, unassigned) [Example 13, rac-2,3-Dihydro-furo[2,3-b]pyridine-3-carboxylic acid (1-cycloheptyl-2-hydroxy-ethyl)-amide], the 50% inhibitory concentration (IC50) worked out at 813 nM.

As for `O=C(NCc1cccc(C(F)(F)F)c1Cl)C1COc2ncccc21` (racemic) [Example 16, rac-2,3-Dihydro-furo[2,3-b]pyridine-3-carboxylic acid 2-chloro-3-trifluoromethyl-benzylamide], the IC50 was 12.6 nM.

With `Cc1ncc(C(CNC(=O)C2COc3ncccc32)N2CCC(F)(F)CC2)cn1` (single isomer, unassigned) [Example 28, rac-2,3-Dihydro-furo[2,3-b]pyridine-3-carboxylic acid [2-(4,4-difluoro-piperidin-1-yl)-2-(2-methyl-pyrimidin-5-yl)-ethyl]-amide], the IC50 is 58.9 nM.

For the compound `O=C(NCc1ccc(Oc2ccccc2)cc1)C1COc2ncccc21` (racemic) [Example 44, rac-2,3-Dihydro-furo[2,3-b]pyridine-3-carboxylic acid 4-phenoxy-benzylamide], the IC50 is 1120 nM.

As to `O=C(NCc1ccc(C(F)(F)F)cc1Cl)C1COc2ncccc21` (racemic) [Example 103, rac-2,3-Dihydro-furo[2,3-b]pyridine-3-carboxylic acid 2-chloro-4-trifluoromethyl-benzylamide], the IC50 came to 80.4 nM.

The same experiment, now with this note: read-out: IC50 [nM], antagonistic activities with respect to the P2X7 receptor.
For the compound `Cc1cc(Cl)cc(Cl)c1CNC(=O)C1COc2c1ccc[n+]2[O-]` (racemic) [Example 115, rac-7-Oxy-2,3-dihydro-furo[2,3-b]pyridine-3-carboxylic acid 2,4-dichloro-6-methyl-benzylamide], the IC50 stood at 35.4 nM.

Staying with this experiment, now noted: read-out: IC50 [nM], antagonistic activities with respect to the P2X7 receptor; HEK-293 cells expressing human recombinant P2X7 receptor; YO-PRO-1 fluorescence; ATP 250 μM, 90 minutes; highest concentration 10 μM.
As for `O=C(NCC(c1cnc(C2CC2)nc1)N1CCOCC1)C1COc2ncccc21` (stereo not drawn) [Example 91, 2,3-Dihydro-furo[2,3-b]pyridine-3-carboxylic acid [2-(2-cyclopropyl-pyrimidin-5-yl)-2-morpholin-4-yl-ethyl]-amide], the IC50 worked out at 215 nM.

`O=C(N[C@H](CO)c1ccc(Cl)cc1Cl)C1COc2ncccc21` (single isomer, unassigned) [Example 7]: the half-inhibitory concentration (IC50) was 117 nM.

Turning to `O=C(NCc1c(Cl)cc(Cl)cc1CO)C1COc2ncccc21` (single isomer, unassigned) [Example 25, 2,3-Dihydro-furo[2,3-b]pyridine-3-carboxylic acid 2,4-dichloro-6-hydroxymethyl-benzylamide], the IC50 turned out to be 2.7 nM.

For `O=C1c2c(Cl)cc(Cl)cc2CC1NC(=O)C1COc2ncccc21` (stereo not drawn) [Example 116, 2,3-Dihydro-furo[2,3-b]pyridine-3-carboxylic acid (5,7-dichloro-1-oxo-indan-2-yl)-amide], the IC50 was 9010 nM.

For `O=C(N[C@H](CO)c1ccc(Cl)cc1Cl)[C@H]1CCOc2ncccc21` (mixture of isomers) [Example 9, (S)-3,4-Dihydro-2H-pyrano[2,3-b]pyridine-4-carboxylic acid [(S)-1-(2,4-dichloro-phenyl)-2-hydroxy-ethyl]-amide and (R)-3,4-Dihydro-2H-pyrano[2,3-b]pyridine-4-carboxylic acid [(S)-1-(2,4-dichloro-phenyl)-2-hydroxy-ethyl]-amide], the IC50 is 70.8 nM.

For the compound `O=C(N[C@@H]1CCCc2cccc(Cl)c21)C1COc2ncccc21` (stereo partly drawn) [Example 111, 2,3-Dihydro-furo[2,3-b]pyridine-3-carboxylic acid ((R)-8-chloro-1,2,3,4-tetrahydro-naphthalen-1-yl)-amide], the IC50 amounted to 221 nM.

Regarding `O=C(NC(CO)C1CCCCCC1)C1CCOc2ncccc21` (stereo not drawn) [Example 52, 3,4-Dihydro-2H-pyrano[2,3-b]pyridine-4-carboxylic acid (1-cycloheptyl-2-hydroxy-ethyl)-amide], the IC50 came out at 276 nM.

With `O=C(NCC(c1ccc(C(F)(F)F)cc1)N1CCC(F)(F)CC1)C1COc2ncccc21` (stereo not drawn) [Example 78, 2,3-Dihydro-furo[2,3-b]pyridine-3-carboxylic acid [2-(4,4-difluoro-piperidin-1-yl)-2-(4-trifluoromethyl-phenyl)-ethyl]-amide], the IC50 is 122 nM.

In the case of `Cc1cc(Cl)cc(Cl)c1CNC(=O)C1COc2ncccc21` (single isomer, unassigned) [Example 3, 2,3-Dihydro-furo[2,3-b]pyridine-3-carboxylic acid 2,4-dichloro-6-methyl-benzylamide], the IC50 was 18.3 nM.

Regarding `COc1ccc(C(CNC(=O)C2COc3ncccc32)N2CCOCC2)cn1` (stereo not drawn) [Example 87, 2,3-Dihydro-furo[2,3-b]pyridine-3-carboxylic acid [2-(6-methoxy-pyridin-3-yl)-2-morpholin-4-yl-ethyl]-amide], the IC50 was 978 nM.

`O=C(N[C@H](CO)c1ccc(Cl)cc1Cl)C1COc2ncccc21` (single isomer, unassigned) [Example 6]: the IC50 came out at 621 nM.

As for `O=C(NC1CCc2cccc(Br)c21)C1COc2ncccc21` (stereo not drawn) [Example 113, 2,3-Dihydro-furo[2,3-b]pyridine-3-carboxylic acid (7-bromo-indan-1-yl)-amide], the IC50 came to 35.9 nM.

With `O=C(NCC(c1cnc(C(F)(F)F)nc1)N1CCOCC1)C1COc2ncccc21` (stereo not drawn) [Example 84, 2,3-Dihydro-furo[2,3-b]pyridine-3-carboxylic acid [2-morpholin-4-yl-2-(2-trifluoromethyl-pyrimidin-5-yl)-ethyl]-amide], the IC50 stood at 20.8 nM.

In the case of “(S)-2,3-Dihydro-furo[2,3-b]pyridine-3-carboxylic acid ((1S,2R)-2-hydroxy-indan-1-yl)-amide and (R)-2,3-Dihydro-furo[2,3-b]pyridine-3-carboxylic acid ((1S,2R)-2-hydroxy-indan-1-yl)-amide [Example 65]”, the IC50 came to 3400 nM.
